According to publication PMC4914250, “Cancer therapeutic approach based on conformational stabilization of mutant p53 protein by small peptides” (Oncotarget, 2016):

Tests used:
[1] = system: p53 target genes p21, PUMA and Mdm2 in H1299-tsp53^V135A cells; assay: Induction of p53 target genes by qRT-PCR, H1299-tsp53 cells; format: cell-based, human; settings: peptide 5μg/ml, 18 hours, 37°C
Description: Since p53 works primarily as a transcription factor, we tested the ability of lead peptides to induce p53 target gene activation. To that end we used H1299-tsp53^V135A cells, which express temperature sensitive (ts) p53 and allow examination of WT and mutant p53 states in the same cellular background. In the representative experiment shown in Figure 3A, cells were exposed to the indicated peptides (5μg/ml) and then either transferred to 32°C or placed back at 37°C. Cells were harvested 18 hours later, and mRNA was extracted and subjected to qRT-PCR analysis. Expression levels of 3 representative p53 target genes, p21, PUMA and Mdm2, were examined. Values were normalized to non-treated cells at 37°C, and expression at 32°C, where the ts-p53 is in a WT conformation, served as positive control. […] A similar analysis was performed on ES2 ovarian cancer cells, expressing endogenous mp53^S241F, compared to ES2 p53KO cells (Figure 3B).
Figure 3 Peptides binding to p53 and their effect on the expression of p53 target genes A. - Bar graph illustrating the effect of selected peptides on activation of mutp53 by measuring transactivation of p53 target genes as determined by qRT-PCR. H1299 cells stably transfected with mutp53 (ts) A135V were used. The indicated peptides were added directly to the medium at a concentration of 5ug/ml and cells were then either moved to 32°C or returned to 37°C. 18 hours later cells were harvested, extracted for RNA, cDNA was synthesis subjected to qrt time PCR analysis. The expression level of 3 representative p53 target genes, p21, PUMA and Mdm2, were examined. The figure illustrates the relative fold induction of transcription of the cells treated with the selected peptides as compared to non-treated cells. B. - Bar graph illustrating the effect of selected peptides on activation of mutp53 by measuring transactivation of p53 target genes as determined by qRT-PCR. ES2and ES2-p53KO cells were treated with indicated peptides 5ug/ml, for 18 hours. Cells were harvested, and cDNA was subjected to qRT-PCR analysis. Expression of 4 representative p53 target genes, p21, PUMA, Mdm2 and CD95, was examined. The figure illustrates the relative fold induction of transcription in cells treated with the selected peptides compared to non-treated cells. C. - Binding of mutp53 to promoters of representative p53 target genes in live cells, assessed by chromatin immunoprecipitation. BT-549 breast cancer cells endogenously expressing mutant p53^R249S were treated for 5 hours with a mix of 3 pCAPs - 250, 242 and 325. […] DNA cross-linked p53 was immunoprecipitated, and binding to the p53 responsive elements of the PUMA, p21, CD95 and MDM2 gene promoters was quantified by qPCR. […] Results are presented as relative absorbance at 450nm. […]

[2] = system: SW-480 colon cancer cells; assay: SW480 colon carcinoma xenograft, intratumoral injection; format: in vivo, nude mice
Description: The lead peptides were evaluated also in a colon carcinoma xenograft model, employing SW480 cells that harbor p53^R273H, P309S. The experiment was conducted on 15 mice, randomly divided into 3 groups: a control group treated with a cocktail of 3 ineffective peptides, a group treated with a cocktail of 3 effective pCAPs (250, 308, 325) and a group treated singly with pCAP-325. Tumors were allowed to reach visible size for 10 days before onset of treatment. […] Figures 6F, 6G show the mean weight and volume of excised tumors.
Figure 6 Effect of lead peptides on tumor progression in vivo; colon cancer xenograft model In vivo effect of the indicated peptides in a mouse xenograft model of SW-480 colon cancer cells. 10^6 cells were injected and tumors were allowed to establish for 10 days. […] D., E. - Box plot of tumor volume and weight, respectively. TEXT PRINTED IN THE PICTURE: (A) Control peptides: SW-480 colon carcinoma cells (p53^273,309): 240% | (B) pCAP mix: SW-480 colon carcinoma cells (p53^273,309): -97% | (C) pCAP-325: SW-480 colon carcinoma cells (p53^273,309): -93.6% DOUBTS OF THE COPYIST ABOUT THIS PICTURE: Panels A-C: no measure is printed with the percentages (240%, -97%, -93.6%); each stands only beside a bracket at the right end of the plot
Mice (6 weeks athymic nude) were injected subcutaneously with 2×10^5-10^6 cells into each […]. All cell lines employed in these experiments stably express a luciferase reporter gene to enable monitoring of tumor growth by live imaging. 4-18 days later, when tumors reached visible size, the mice were randomly divided into several groups: a control group, treated with either a single control peptide or a mix of 2-3 control pCAPs, and groups treated with effective peptides, either a single peptide or a mix of three peptides. Peptides were administered by intratumoral injection of 6-10μg peptide per tumor in 40μl PBS, three times a week. Tumor growth over time was measured by live imaging, using the IVIS2000 system. Exposure time was calibrated to 20 seconds. 16 images were taken over 8 minutes and peak luminescence values were taken for each tumor. Experiments were conducted until tumors reached maximal allowed size of 1cm^3, at which time were sacrificed and tumors extracted, measured and weighed.

[3] = system: recombinant WTp53 or mutp53R175H; assay: ELISA of binding of WTp53 and mutp53 to plate-conjugated peptides; settings: peptides conjugated to wells, peptides recruited preferentially WTp53
[4] = Experiment 4, SW-480 p53^R273H,P309S
[5] = Experiment 4, SW-480 p53^R273H,P309S, excised tumors

Q: With IRGRIIR [pCAP-54] as the substance, how does the “expression of the p53 target genes, H1299-tsp53” value (shortened to “expression”) [1] read?
A: significant increase

Q: For “LRCLLLLIGRVGRRRRRRRR [pCAP-24R, pCAP-24 with poly arginine tail]”, which “expression” value [1] is on record?
A: significant increase

Q: Which “expression” value [1] does the source give for “SFILFIRRGRLGRRRRRRRRR [pCAP-60R, pCAP-60 with poly arginine tail]” here?
A: significant increase

Q: For “WNHHHSTPHPAHRRRRRR [pCAP-97R, pCAP-97 with poly arginine tail]”, which “expression” value [1] is on record?
A: significant increase

Q: What does the source list for myr-RRIRDPRILLLHFD [pCAP-325]?
A: % of tumors total regression [2, 4]: 20%; IVIS average ratio to day 0 [2, 4]: 6.4%; Samples average size [2, 5]: 0.12; Samples average weight [2, 5]: 0.1; tumor size decrease ([2]; SW480 xenograft, intratumoral three times a week, mix 2μg of each peptide or pCAP-325 6μg, live imaging): 93.6%

Q: Which “recruitment of mutp53 lower than of WTp53” value [3] does the source give for myr-RRKHNKHRPEPDSDER [pCAP-221] here?
A: 50%-80%

Q: Which “recruitment of mutp53 lower than of WTp53” value [3] does the source give for myr-RRLIVRILKLPNPPER [pCAP-242] here?
A: 50%-80%
